Residues, ends and D or L forms follow the SMILES beside them.
Tests used:
[1] = test system: HBV core specific CTL from PBMC of patients with acute hepatitis B; conditions: patient
[2] = test system: autologous target cells pulsed with peptide HBc11-27; experiment: Immunodominance of the HBc11-27 CTL epitope in HLA-A2 positive subjects; format: cell-based, human; conditions: one of the four chronic patients
Source text: To assess the immunodominance in the HLA-A2 haplotype of the CTL epitope(s) contained in peptide HBc11-27, eight additional subjects with self-limited acute hepatitis B infection, four patients with chronic active hepatitis B, and eight healthy subjects without evidence of previous exposure to HBV (all HLA-A2 positive) were repeatedly tested.
Patient to patient variations in the pattern of response to the peptide were observed during the course of the illness. The cytolytic activity was generally detectable during the icteric phase when transaminase values were high; in some patients the response was long-lasting, being still detectable when GPT levels had already become normal, and in other subjects the lytic activity became undetectable 2 or 3 weeks after the transaminase peak when GPT levels were still slightly altered.

SMILES	cytotoxic activity of unstimulated PBMC against autologous B-LCL fed with peptide [1]	cytotoxicity against the relevant peptide sequence [2]
CC(C)C[C@H](NC(=O)[C@@H](NC(=O)[C@H](CO)NC(=O)[C@@H](N)CC(C)C)[C@@H](C)O)C(=O)N1CCC[C@H]1C(=O)N[C@@H](CCC(=O)O)C(=O)N[C@H](C(=O)N[C@H](C(=O)N[C@H](C(=O)N[C@H](C(=O)N[C@@H](CCCNC(=N)N)C(=O)N[C@@H](CCCNC(=N)N)C(=O)N[C@@H](CCCNC(=N)N)C(=O)NCC(=O)N[C@@H](CCCNC(=N)N)C(=O)N[C@@H](CO)C(=O)O)C(C)C)C(C)C)[C@@H](C)O)[C@@H](C)O [140-155]	No cytotoxic activity was observed	–
CC(C)C[C@H](NC(=O)[C@H](CC(C)C)NC(=O)[C@H](CCC(=O)O)NC(=O)[C@@H](NC(=O)[C@@H](NC(=O)[C@H](C)N)[C@@H](C)O)C(C)C)C(=O)N[C@@H](CO)C(=O)N[C@@H](Cc1ccccc1)C(=O)N[C@@H](CC(C)C)C(=O)N1CCC[C@H]1C(=O)N[C@@H](CO)C(=O)N[C@@H](CC(=O)O)C(=O)N[C@@H](Cc1ccccc1)C(=O)N[C@@H](Cc1ccccc1)C(=O)N1CCC[C@H]1C(=O)N[C@@H](CO)C(=O)N[C@H](C(=O)O)C(C)C [HBc11-27] (H-ATVELLSFLPSDFFPSV-OH)	–	detectable, though very low levels of cytotoxicity

— patent US5840303A, “Peptides for inducing cytotoxic T lymphocyte responses to hepatitis B virus” (The Scripps Research Foundation, priority 1995, dated 1998)
